Measurements published in publication PMC5615432, “HM71224, a selective Bruton’s tyrosine kinase inhibitor, attenuates the development of murine lupus” (Arthritis Research & Therapy, 2017).

Target: Bruton's tyrosine kinase (BTK) (Homo sapiens, UniProt Q06187)
Assay: immunoblot of BTK Y223 autophosphorylation in anti-IgM-stimulated Ramos cells
Assay type: cell-based

Sequence of Bruton's tyrosine kinase (BTK) (Q06187 2-659): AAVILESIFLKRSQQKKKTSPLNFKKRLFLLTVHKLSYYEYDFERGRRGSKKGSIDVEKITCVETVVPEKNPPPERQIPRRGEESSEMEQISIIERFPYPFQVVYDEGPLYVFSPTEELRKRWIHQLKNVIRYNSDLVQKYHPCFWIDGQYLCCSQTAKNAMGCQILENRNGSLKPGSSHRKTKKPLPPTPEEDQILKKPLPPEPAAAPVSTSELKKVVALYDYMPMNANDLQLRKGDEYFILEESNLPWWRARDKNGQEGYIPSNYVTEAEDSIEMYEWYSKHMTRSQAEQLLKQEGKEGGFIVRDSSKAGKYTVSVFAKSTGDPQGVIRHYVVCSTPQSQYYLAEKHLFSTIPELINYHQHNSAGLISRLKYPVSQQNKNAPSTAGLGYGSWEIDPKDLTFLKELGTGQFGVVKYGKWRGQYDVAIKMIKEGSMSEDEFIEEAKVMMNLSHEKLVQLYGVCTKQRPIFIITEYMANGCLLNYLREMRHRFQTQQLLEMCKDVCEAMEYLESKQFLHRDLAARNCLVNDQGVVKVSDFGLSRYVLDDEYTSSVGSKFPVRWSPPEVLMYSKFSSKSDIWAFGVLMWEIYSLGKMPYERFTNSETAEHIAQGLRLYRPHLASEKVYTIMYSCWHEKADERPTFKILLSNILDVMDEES

SMILES: C=CC(=O)Nc1cccc(Oc2nc(Nc3ccc(N4CCN(C)CC4)cc3)nc3ccoc23)c1 [HM71224]
- IC50: < 10 nM
